From US20100179151A1, “TRANSDERMAL APPLICATION OF TRIAZINES FOR CONTROLLING INFECTIONS WITH COCCIDIA” (BAYER ANIMAL HEALTH GMBH, priority 2006, published 2010)
“And” between values parts separate entries of the source, which are not always exact repeats. Equal values may be shown once. One block for each compound: values may come before it.

Tests used:
Format in all cases: in vivo
[1] = Serum concentrations of toltrazuril and ponazuril after pour-on application in calves
Method: (§1) A. Determination of the Serum Concentrations of Toltrazuril and Ponazuril after Pour-On Application in Calves and Rabbits On day 0, the formulation of Example 10 was applied externally at a dose of 20 mg per kg (body weight) to in each case three calves and rabbits. At the points in time specified in the tables, the serum concentrations of toltrazuril and its metabolite ponazuril (toltrazuril sulphone) were determined.

[2] = Serum concentrations of toltrazuril and ponazuril after pour-on application in rabbits; conditions: for Ponazuril in mg/l on day after the treatment (serum, metabolite of toltrazuril) / Toltrazuril in mg/l on day after the treatment (serum): individual animals 1-3
Method: as §1

Isospora suis = experiment: Activity of toltrazuril pour-on against artificially provoked infections in suckling pigs with Isospora suis; conditions: pour-on treatment
Method: B. Activity of Toltrazuril Pour-On Against Artificially Provoked Infections in Suckling Pigs with Isospora suis: 3 groups with 4 to 11 animals were formed. Group A was infected with oocysts and treated with the toltrazuril pour-on formulation of Example 10. Group B was not infected, but treated in the same manner, the dosage rate of group A and B being in each case 20 mg/kg body weight. Group C was infected with oocysts, but not treated with toltrazuril. The success of the treatment was determined by monitoring the live weight of the animals. To this end, the animals were weighed on different days, and the weight gain of the individual animals was determined The results are shown in Table 3.

[3] = Percutaneous absorption in pigs: detection of active substance and main metabolite in serum and body tissues; conditions: pour-on, serum, musculature, skin, liver, kidney
From the text: Astonishingly, this is even the case in animal species with little hair. Animals with little hair, such as pigs, ensure the protective function of the outer integument via a thicker epidermis. It is entirely surprising that the active substance is absorbed across this thicker skin and in particular also across the stratum corneum of the skin, which is particularly thick in pigs. Moreover, the active substance can also not be taken up via the large number of hair follicles, as is in the case in other animal species with a thicker coat of hair.

Ponazuril in mg/l on day after the treatment (serum, metabolite of toltrazuril) ([1]; day 0, toltrazuril formulation of Example 10 pour-on 20 mg/kg, individual animals 1-3, LoQ 25 μg/l): <LoQ | Ponazuril in mg/l on day after the treatment (serum, metabolite of toltrazuril) ([1]; day 1, toltrazuril formulation of Example 10 pour-on 20 mg/kg, individual animals 1-3): 156 mg/L and 44 mg/L and 146 mg/L | Ponazuril in mg/l on day after the treatment (serum, metabolite of toltrazuril) ([1]; day 7, toltrazuril formulation of Example 10 pour-on 20 mg/kg, individual animals 1-3): 9715 mg/L and 2735 mg/L and 2615 mg/L | Ponazuril in mg/l on day after the treatment (serum, metabolite of toltrazuril) ([1]; day 13, toltrazuril formulation of Example 10 pour-on 20 mg/kg, individual animals 1-3): 4506 mg/L and 3440 mg/L and 1905 mg/L | Ponazuril in mg/l on day after the treatment (serum, metabolite of toltrazuril) ([1]; day 21, toltrazuril formulation of Example 10 pour-on 20 mg/kg, individual animals 1-3): 1394 mg/L and 733 mg/L and 1172 mg/L | Ponazuril in mg/l on day after the treatment (serum, metabolite of toltrazuril) ([2]; day 1, toltrazuril formulation of Example 10 pour-on 20 mg/kg): 1.79 mg/l and 1.38 mg/l (2×) | Ponazuril in mg/l on day after the treatment (serum, metabolite of toltrazuril) ([2]; day 2, toltrazuril formulation of Example 10 pour-on 20 mg/kg): 4.72 mg/L and 2.63 mg/L and 2.83 mg/L | Ponazuril in mg/l on day after the treatment (serum, metabolite of toltrazuril) ([2]; day 3, toltrazuril formulation of Example 10 pour-on 20 mg/kg): 5.03 mg/L and 4.07 mg/L and 3.42 mg/L
SMILES: Cc1cc(-n2c(=O)[nH]c(=O)n(C)c2=O)ccc1Oc1ccc(S(=O)(=O)C(F)(F)F)cc1 [Ponazuril, ponazuril]

Percutaneous absorption and metabolism after pour-on application [1]: percutaneously absorbed, and metabolised | Toltrazuril in mg/l on day after the treatment (serum) ([1]; day 0, formulation of Example 10 applied externally (pour-on) 20 mg/kg, individual animals 1-3, LoQ 25 μg/l): <LoQ | Toltrazuril in mg/l on day after the treatment (serum) ([1]; day 1, formulation of Example 10 pour-on 20 mg/kg, individual animals 1-3): 2180 mg/L and 650 mg/L and 2281 mg/L | Toltrazuril in mg/l on day after the treatment (serum) ([1]; day 7, formulation of Example 10 pour-on 20 mg/kg, individual animals 1-3): 9246 mg/L and 2042 mg/L and 2275 mg/L | Toltrazuril in mg/l on day after the treatment (serum) ([1]; day 13, formulation of Example 10 pour-on 20 mg/kg, individual animals 1-3): 2194 mg/L and 1806 mg/L and 702 mg/L | Toltrazuril in mg/l on day after the treatment (serum) ([1]; day 21, formulation of Example 10 pour-on 20 mg/kg, individual animals 1-3): 462 mg/L and 371 mg/L and 430 mg/L | Percutaneous absorption and metabolism after pour-on application [2]: percutaneously absorbed, and metabolised | Toltrazuril in mg/l on day after the treatment (serum) ([2]; day 1, formulation of Example 10 pour-on 20 mg/kg): 9.06 mg/L and 8.67 mg/L and 9.67 mg/L | Toltrazuril in mg/l on day after the treatment (serum) ([2]; day 2, formulation of Example 10 pour-on 20 mg/kg): 10.39 mg/L and 6.03 mg/L and 8.03 mg/L | Toltrazuril in mg/l on day after the treatment (serum) ([2]; day 3, formulation of Example 10 pour-on 20 mg/kg): 6.66 mg/L and 5.07 mg/L and 6.70 mg/L
SMILES: Cc1cc(-n2c(=O)[nH]c(=O)n(C)c2=O)ccc1Oc1ccc(SC(F)(F)F)cc1 [Toltrazuril, toltrazuril]
Control of massive infection with Isospora suis (Isospora suis): successfully controlled | Elimination of oocysts (parasitological efficacy) (Isospora suis): reduced elimination of oocysts | Incidence of diarrhoea (clinical efficacy) (Isospora suis): reduced incidence of diarrhoea | Weight development (clinical efficacy) (Isospora suis): better weight development | Percutaneous absorption: active substance and main metabolite detected in body tissues [3]: percutaneous absorption was also demonstrated
